Data set [1] concerns human gastric cancer cell line MGC-803. Description: MTT antiproliferation assay, MGC-803 cells. Type of data set: cell-based. The settings on record: 48 h incubation, mean ± SD of triplicate experiments. The protocol: (§1) The human gastric cancer cell line MGC-803 and human normal gastric epithelial cell line GES-1 were cultured in DMEM containing penicillin (100 U/mL), streptomycin (100 μg/mL), and 10% FBS at 37 °C with 5% CO2. Cells that used in experiments were passaged at least three times.
(§2) Cells were seeded in 96-well plates at a density of 5 × 10^4/well and cultured at 37 °C with 5% CO2 for 24 h. And then, compounds (1–5) in various concentrations were introduced with incubation for another 48 h. Finally, 10 μL MTT (5 mg/mL) was added to each well. After 4 h incubation, the medium was removed and 150 μL DMSO was added. Absorbance was read on a Microplate Reader at 570 nm (Bio Tek, Thenceforth, USA) (Li et al. [2014]). The MTT assay aims to evaluate the antiproliferative effects of the test compounds in MGC-803 cells and the cytotoxic effects in GES-1 cells.
(Tetrazolium dyes change colour on reduction, which living cells bring about.)

The test system of data set [2] is human normal gastric epithelial cell line GES-1. Description: MTT cytotoxicity assay, GES-1 cells. The class given is cell-based. The settings on record: GES1, 48 h incubation, mean ± SD of triplicate experiments. Here is the method: as §1, §2
For a further data set, the system named is MGC-803 cells. Description: Annexin V-FITC/PI apoptosis assay by flow cytometry. Type of data set: cell-based, human. Conditions: MGC-803 cells, 1.0, 2.0, 4.0 μM, 24 h, compared with the control group. The protocol: The apoptosis effect of 2′-Z auraptene A (2) in MGC-803 cells was examined using the Annexin V-FITC/PI detection kit, according to the description of previously reported (Bakar et al. [2016]). Briefly, cells were seeded and treated with compound 2 (0, 1.0, 2.0, 4.0 μM) for 24 h. Cells were harvested and washed twice with cold PBS before incubating with annexin V and PI for 30 min in dark. And then the stained cells were detected and analyzed on FACS Calibur flow cytometry.
On the technique in general: Flow cytometry measures light scatter and fluorescence of single cells or particles in a stream.

Data set [3] concerns Bax, Bcl-2 and cleaved caspase-3 in MGC-803 cells. Description: Western blot of apoptosis-related proteins. The class given is cell-based, human. The settings on record: MGC-803 cells, 1.0, 2.0, 4.0 μM, 24 h. The protocol: The detection of levels of apotosis-related proteins in MGC-803 cells was performed according to the reported western blot method (Zhang et al. [2015a]). Briefly, cells were treated with compound 2 (0, 1.0, 2.0, 4.0 μM) for 24 h and then harvested to detect the protein concentration using the BCA method. Total cellular protein was separated by an SDS/PAGE gel and transferred onto PVDF membranes using a semidry electroblotter. The membrane was blocked with non-fat milk solution (5%) for 1 h, and incubated subsequently with primary antibody at 4 °C overnight. Then TBST was used to wash the primary antibody and incubated with secondary antibody for 1 h at room temperature. Protein bands were visualized by enhanced chemiluminescence (ECL) and β-actin was used as a normalizing control.
On the technique in general: A western blot detects proteins with antibodies after separation by electrophoresis.

Data set [4] can be described thus: Solubility in aqueous media. The class given is physicochemical. Conditions: thermodynamic equilibrating conditions, compared with 2′-Z auraptene.

The text below walks through data of paper PMC6028838, “A new terpene coumarin microbial transformed by Mucor polymorphosporus induces apoptosis of human gastric cancer cell line MGC-803” (Archives of Pharmacal Research, 2018).

Each structure is given as a SMILES string.

The term IC50 denotes the concentration that gives 50% inhibition. `CC(C)=CCC/C(C)=C\COc1ccc2ccc(=O)oc2c1` [Compound 1, (Z)-7-((3′,7′-dimethylocta-2′,6′-dien-1′-yl)oxy)-2H-chromen-2-one]: the half-inhibitory concentration (IC50) in data set [1] worked out at 10.4 ± 0.86 µM; in data set [2], 57 ± 2.31 µM.
In data set [1], `C/C(=C/COc1ccc2ccc(=O)oc2c1)CCCO` [Compound 2, 2′-Z auraptene A] displayed an IC50 of 0.78 ± 0.13 µM. Besides, the 50% inhibitory concentration (IC50) in data set [2] was 46 ± 3.11 µM. Besides, in the data set on MGC-803 cells, the cellular apoptotic rates result was “increased significantly in a dose-dependent manner”. Besides, in data set [3], the “level of Bax protein” value is “increase”, the “level of Bcl-2 protein” value is “reduction” and the “level of cleaved caspase-3 protein” value is “increase”. Further, the “limitation of solubility in aqueous media” value in data set [4] is “improved”.
`C/C(=C/CC/C(C)=C\COc1ccc2ccc(=O)oc2c1)CO` [Compound 3, 7-(((2′Z,6′Z)-9′-hydroxy-3′,7′-dimethylocta-2′,6′-dien-1′-yl)oxy)-2H-chromen-2-one]: the IC50 in data set [1] amounted to 4.75 ± 1.02 µM; in data set [2] it was 25.6 ± 2.12 µM.
For `C/C(=C/CC(O)/C(C)=C\COc1ccc2ccc(=O)oc2c1)CO` (stereo not drawn) [Compound 4, 7-(((2′Z,6′Z)-4′,9′-hydroxy-3′,7′-dimethylocta-2′,6′-dien-1′-yl)oxy)-2H-chromen-2-one] the same measures were 6.78 ± 2.06 µM and 33.8 ± 1.46 µM.
As for `C/C(=C/C(O)C/C(C)=C\COc1ccc2ccc(=O)oc2c1)CO` (stereo not drawn) [Compound 5, 7-(((2′Z,6′Z)-5′,9′-hydroxy-3′,7′-dimethylocta-2′,6′-dien-1′-yl)oxy)-2H-chromen-2-one], the IC50 in data set [1] worked out at 10.8 ± 1.83 µM; in data set [2], 35.5 ± 2.21 µM.
